According to ChEMBL document CHEMBL3994622, “Design and synthesis of new RAF kinase-inhibiting antiproliferative quinoline derivatives. Part 2: Diarylurea derivatives” (Eur J Med Chem, 2017):

Columns and labels:
NCI-H460 = assay: Growth inhibition of human NCI-H460 cells incubated for 48 hrs by sulforhodamine B assay; type: functional; conditions: NCI-H460, 48 h
[1] = molecular target: RAF proto-oncogene serine/threonine-protein kinase (Homo sapiens, UniProt P04049); assay: Inhibition of human c-RAF using MEK1 as substrate in presence of [33P]ATP by Hotspot assay
Hs-578T = assay: Growth inhibition of human Hs 578T cells incubated for 48 hrs by sulforhodamine B assay; type: functional
EKVX = assay: Growth inhibition of human EKVX cells incubated for 48 hrs by sulforhodamine B assay; type: functional
IGROV-1 = assay: Growth inhibition of human IGROV1 cells incubated for 48 hrs by sulforhodamine B assay; type: functional; conditions: IGROV-1, 48 h
NCI-H522 = assay: Growth inhibition of human NCI-H522 cells incubated for 48 hrs by sulforhodamine B assay; type: functional; conditions: NCI-H522, 48 h
RXF 393 = assay: Growth inhibition of human RXF393 cells incubated for 48 hrs by sulforhodamine B assay; type: functional; conditions: RXF 393, 48 h
SF-295 = assay: Growth inhibition of human SF295 cells incubated for 48 hrs by sulforhodamine B assay; type: functional; conditions: SF-295, 48 h
BT-549 = assay: Growth inhibition of human BT549 cells incubated for 48 hrs by sulforhodamine B assay; type: functional; conditions: BT-549, 48 h
UACC-62 = assay: Growth inhibition of human UACC62 cells incubated for 48 hrs by sulforhodamine B assay; type: functional; conditions: UACC-62, 48 h
DU-145 = assay: Growth inhibition of human DU145 cells incubated for 48 hrs by sulforhodamine B assay; type: functional; conditions: DU-145, 48 h
NCI-H23 = assay: Growth inhibition of human NCI-H23 cells incubated for 48 hrs by sulforhodamine B assay; type: functional; conditions: NCI-H23, 48 h
HT-29 = assay: Growth inhibition of human HT-29 cells incubated for 48 hrs by sulforhodamine B assay; type: functional; conditions: HT-29, 48 h
NCI-H226 = assay: Growth inhibition of human NCI-H226 cells incubated for 48 hrs by sulforhodamine B assay; type: functional; conditions: NCI-H226, 48 h
NCI/ADR-RES = assay: Growth inhibition of human NCI/ADR-RES cells incubated for 48 hrs by sulforhodamine B assay; type: functional
KM12 = assay: Growth inhibition of human KM12 cells incubated for 48 hrs by sulforhodamine B assay; type: functional; conditions: KM12, 48 h
OVCAR-4 = assay: Growth inhibition of human OVCAR4 cells incubated for 48 hrs by sulforhodamine B assay; type: functional; conditions: OVCAR-4, 48 h
A498 = assay: Growth inhibition of human A498 cells incubated for 48 hrs by sulforhodamine B assay; type: functional; conditions: A498, 48 h
NCI-H322M = assay: Growth inhibition of human NCI-H322M cells incubated for 48 hrs by sulforhodamine B assay; type: functional
UACC-257 = assay: Growth inhibition of human UACC257 cells incubated for 48 hrs by sulforhodamine B assay; type: functional; conditions: UACC-257, 48 h
SN12C = assay: Growth inhibition of human SN12C cells incubated for 48 hrs by sulforhodamine B assay; type: functional
MDA-MB-435 = assay: Growth inhibition of human MDA-MB-435 cells incubated for 48 hrs by sulforhodamine B assay; type: functional; conditions: MDA-MB-435, 48 h
SK-MEL-5 = assay: Growth inhibition of human SK-MEL-5 cells incubated for 48 hrs by sulforhodamine B assay; type: functional; conditions: SK-MEL-5, 48 h
ACHN = assay: Growth inhibition of human ACHN cells incubated for 48 hrs by sulforhodamine B assay; type: functional
U-251 = assay: Growth inhibition of human U251 cells incubated for 48 hrs by sulforhodamine B assay; type: functional; conditions: U-251, 48 h
SK-OV-3 = assay: Growth inhibition of human SKOV3 cells incubated for 48 hrs by sulforhodamine B assay; type: functional; conditions: SK-OV-3, 48 h
SNB-19 = assay: Growth inhibition of human SNB19 cells incubated for 48 hrs by sulforhodamine B assay; type: functional; conditions: SNB-19, 48 h
HOP-92 = assay: Growth inhibition of human HOP92 cells incubated for 48 hrs by sulforhodamine B assay; type: functional; conditions: HOP-92, 48 h
SK-MEL-28 = assay: Growth inhibition of human SK-MEL-28 cells incubated for 48 hrs by sulforhodamine B assay; type: functional; conditions: SK-MEL-28, 48 h
786-0 = assay: Growth inhibition of human 786-0 cells incubated for 48 hrs by sulforhodamine B assay; type: functional; conditions: 786-0, 48 h
SR = assay: Growth inhibition of human SR cells incubated for 48 hrs by sulforhodamine B assay; type: functional
RPMI-8226 = assay: Growth inhibition of human RPMI8226 cells incubated for 48 hrs by sulforhodamine B assay; type: functional; conditions: RPMI-8226, 48 h
[2] = read-out: LC50 (the source's name)

RAF proto-oncogene serine/threonine-protein kinase, sequence (P04049 whole entry): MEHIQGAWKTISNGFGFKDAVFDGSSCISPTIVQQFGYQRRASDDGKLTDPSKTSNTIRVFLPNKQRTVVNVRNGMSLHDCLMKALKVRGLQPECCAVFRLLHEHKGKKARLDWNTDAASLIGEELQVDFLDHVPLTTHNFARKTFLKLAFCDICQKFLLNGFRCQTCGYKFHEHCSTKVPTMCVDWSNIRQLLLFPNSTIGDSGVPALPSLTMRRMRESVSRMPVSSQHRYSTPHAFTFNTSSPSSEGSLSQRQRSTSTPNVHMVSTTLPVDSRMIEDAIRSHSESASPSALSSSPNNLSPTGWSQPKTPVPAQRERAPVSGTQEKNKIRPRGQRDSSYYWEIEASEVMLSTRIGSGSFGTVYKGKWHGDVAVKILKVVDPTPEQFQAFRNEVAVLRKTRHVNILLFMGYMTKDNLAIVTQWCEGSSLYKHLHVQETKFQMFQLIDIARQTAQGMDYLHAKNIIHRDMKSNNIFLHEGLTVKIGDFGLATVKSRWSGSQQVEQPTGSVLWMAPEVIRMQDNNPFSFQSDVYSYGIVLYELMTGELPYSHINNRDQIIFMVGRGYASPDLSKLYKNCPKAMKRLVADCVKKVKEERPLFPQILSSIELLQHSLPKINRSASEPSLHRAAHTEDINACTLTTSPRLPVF

Structure (SMILES): COc1cc2cc(Oc3ccc(NC(=O)Nc4cccc(C(F)(F)F)c4)cc3)c(C)nc2cc1OC
- GI50 (NCI-H460): 1.6 µM
- TGI (NCI-H460): 6.02 µM
- CC50 (NCI-H460; [2]): 34.9 µM
- IC50 [1]: 0.15 µM
- GI50 (Hs-578T): 1.44 µM
- TGI (Hs-578T): 4.22 µM
- CC50 (Hs-578T; [2]): > 50 µM
- GI50 (EKVX): 1.48 µM
- LC50 (concentration killing 50% of cells) (EKVX): > 50 µM
- TGI (EKVX): 6.46 µM
- GI50 (IGROV-1): 2.95 µM
- TGI (IGROV-1): 24.9 µM
- CC50 (IGROV-1; [2]): > 50 µM
- GI50 (NCI-H522): 1.32 µM
- TGI (NCI-H522): 4.49 µM
- CC50 (NCI-H522; [2]): 32.4 µM
- GI50 (RXF 393): 1.63 µM
- TGI (RXF 393): 4.97 µM
- CC50 (RXF 393; [2]): 26.3 µM
- GI50 (SF-295): 1.13 µM
- TGI (SF-295): 3.59 µM
- CC50 (SF-295; [2]): 27.2 µM
- GI50 (BT-549): 1.43 µM
- TGI (BT-549): 6.18 µM
- CC50 (BT-549; [2]): 28.2 µM
- GI50 (UACC-62): 1.84 µM
- TGI (UACC-62): 10.9 µM
- CC50 (UACC-62; [2]): > 50 µM
- GI50 (DU-145): 2.78 µM
- TGI (DU-145): 15.8 µM
- CC50 (DU-145; [2]): > 50 µM
- GI50 (NCI-H23): 1.7 µM
- TGI (NCI-H23): 7.41 µM
- CC50 (NCI-H23; [2]): > 50 µM
- GI50 (HT-29): 2.05 µM
- TGI (HT-29): 6.26 µM
- CC50 (HT-29; [2]): 17.8 µM
- GI50 (NCI-H226): 1.8 µM
- TGI (NCI-H226): 5.6 µM
- CC50 (NCI-H226; [2]): 28.8 µM
- GI50 (NCI/ADR-RES): 1.71 µM
- TGI (NCI/ADR-RES): 7.19 µM
- CC50 (NCI/ADR-RES; [2]): 40 µM
- GI50 (KM12): 1.42 µM
- TGI (KM12): 5.92 µM
- CC50 (KM12; [2]): 36.1 µM
- GI50 (OVCAR-4): 2.3 µM
- TGI (OVCAR-4): 9.7 µM
- CC50 (OVCAR-4; [2]): 36 µM
- GI50 (A498): 1.29 µM
- TGI (A498): 4.95 µM
- CC50 (A498; [2]): 29.7 µM
- GI50 (NCI-H322M): 2.84 µM
- TGI (NCI-H322M): 16.6 µM
- CC50 (NCI-H322M; [2]): > 50 µM
- GI50 (UACC-257): 1.09 µM
- TGI (UACC-257): 3.66 µM
- CC50 (UACC-257; [2]): 19.9 µM
- GI50 (SN12C): 2.06 µM
- TGI (SN12C): 16.3 µM
- CC50 (SN12C; [2]): > 50 µM
- GI50 (MDA-MB-435): 1.63 µM
- TGI (MDA-MB-435): 10.1 µM
- CC50 (MDA-MB-435; [2]): > 50 µM
- GI50 (SK-MEL-5): 1.08 µM
- TGI (SK-MEL-5): 2.66 µM
- CC50 (SK-MEL-5; [2]): 8.47 µM
- GI50 (ACHN): 1.64 µM
- TGI (ACHN): 7.71 µM
- CC50 (ACHN; [2]): > 50 µM
- GI50 (U-251): 1.56 µM
- TGI (U-251): 5.61 µM
- CC50 (U-251; [2]): 17 µM
- GI50 (SK-OV-3): 2.06 µM
- TGI (SK-OV-3): 10.6 µM
- CC50 (SK-OV-3; [2]): > 50 µM
- GI50 (SNB-19): 2.19 µM
- TGI (SNB-19): 15 µM
- CC50 (SNB-19; [2]): > 50 µM
- GI50 (HOP-92): 1.26 µM
- LC50 (HOP-92): 21.2 µM
- TGI (HOP-92): 3.96 µM
- GI50 (SK-MEL-28): 1.97 µM
- TGI (SK-MEL-28): 8.37 µM
- CC50 (SK-MEL-28; [2]): 28.2 µM
- GI50 (786-0): 1.74 µM
- TGI (786-0): 9.24 µM
- CC50 (786-0; [2]): > 50 µM
- GI50 (SR): 1.17 µM
- TGI (SR): 3.33 µM
- CC50 (SR; [2]): 32 µM
- GI50 (RPMI-8226): 1.05 µM
- LC50 (lethal concentration, 50% cell kill) (RPMI-8226): > 50 µM
- TGI (RPMI-8226): 2.96 µM
